Data taken from patent US20080220416A1, “Compositions for Inhibiting Cell Growth and Inducing Apoptosis in Cancer Cells and Methods of Use Thereof” (THE BOARD OF TRUSTEES OF THE UNIVERSITY OF ILLINOI, priority 2004, published 2008).

What was measured:
Format in all cases: cell-based, human
[1] = system: CaSki cells; assay: LY411,575 combinations in CaSki cells, growth inhibition and isobologram analysis; conditions: in vitro
Procedure: To evaluate the possibility that inhibition of Notch signaling may sensitize advanced cervical cancers to the effect of cisplatin chemotherapy because Notch-1 protects these cells from apoptosis through the AKT and NF-κB pathways, a non-peptide, benzodiazepine gamma-secretase inhibitor, LY411,575 (Wong et al., 2004, J Biol. Chem. 279:12876-82) was tested in combination with a AKT inhibitor (AKT inhibitor I) or a proteasome inhibitor (MG-132) for effects on cell growth. The latter class of drugs is thought to act primarily by preventing NF-KB activation (Adams, J, 2002, Curr Opin Oncol 14:628-634; Richardson, P, 2003, Cancer Treat Rev 29 Suppl 1:33-39) caused by proteasome-mediated degradation of IκB.
To determine whether LY411,575 potentiates the effect of AKT inhibitor I or MG-132, CaSki cells were treated with (a) LY411,575 (6.25 μM to 50 μM) and AKT inhibitor 1 (0.5 μM to 75 μM), or (b) LY411,575 (1.5 μM to 200 μM) and MG-132 (0.05 μM to 0.2). Following the drug treatment, the cells were tested for growth inhibition as described above. LY411,575 was synthesized according to methods well known in the art (e.g., see WO-09828268, which is incorporated by reference), and AKT inhibitor I and MG-132 were purchased from Calbiochem.
The IC50 values of LY411,575 in the presence of various concentrations of AKT inhibitor I or MG-132 were measured. […]

[2] = system: MDA-MB231 breast cancer cells; assay: Cytotoxicity and growth assay in MDA-MB231 breast cancer cells (SRB, TCA-precipitated protein); conditions: MDA-MB231; siRNA transfection
Procedure: An invasive, estrogen-independent breast cancer cell line that spontaneously expresses high levels of Notch-1 and -4, MDA-MB231, and normal human breast cells were used to investigate whether inhibition of Notch activation or expression affects the biological behavior of breast cancer cells. Human Mammary Epithelial Cells (HMEC) were purchased from Clonetics and cultured in mammary epithelial cell basal medium (MEBM) supplemented with 52 μg/ml Bovine Pituitary Extract […], […] human recombinant Epidermal Growth Factor (hEGF), 5 μg/ml insulin, 0.5 μg/ml Hydrocortisone, 50 μg/ml Gentamicin and 50 μg/ml Amphotericin-B. MDA-MB231 (ATCC, Rockville, Md.) were cultured in DMEM medium with 10% FBS. Notch expression in HMEC and MDA-MB231 cells was silenced using highly specific RNAi. Double-stranded synthetic 21-mer RNA oligonucleotides (siRNAs) were purchased from Dharmacon (Lafayette, Colo.). […] Sequence specificity was determined by BLAST searches which determined the uniqueness of the sequences. Transfection of siRNAs was performed using Oligofectamine (Invitrogen) as recommended by the siRNA manufacturer (Dharmacon). Transfection efficiency was optimized and followed on parallel wells using DNA double stranded oligos of identical sequence to the siRNAs, labeled with biotin on one strand. Transfected cells were identified by Streptavidin-horseradish peroxidase staining (Vectastain) and counted. Transfection efficiencies around 80% were routinely obtained.
Cytotoxicity and growth of transfected cells were estimated by a standard assay used for cancer drug screening, through the total amount of TCA-precipitated cell proteins after drug treatment (Likhitwitayawuid, K et al., 1993, J Nat Prod 56:30-38): 200 μl of cell suspension (10^5 cells/ml) were added to each well in a 96-well plate. After incubation at, 37° C., in 5% CO2 (30 minutes to 72 hours depending on the time course chosen), 50 μl 50% trichloroacetic acid was added to each well. After incubation at 4° C. for 1 hour, precipitates were washed with water 4-5 times and air dried overnight. One hundred μl of SRB solution (0.4% sulforhodamine B in 1% acetic acid, filtered before use) was added to each well for 30 minutes. Wells were washed with 1% acetic acid 4-5 times and air dried. Two hundred μl 10 mM Tris base was added to each well. Plates were shaken for 5-10 minutes and OD at 490 nm (OD490) was recorded via ELISA reader. To assay matrix invasion, 300 μl of cell suspension (10^6 cells/mL in serum-free medium) were added to invasion inserts (BioCoat Matrigel Invasion Chambers, Becton Dickinson, Bedford, Mass.) and incubated for 22 hours at 37° C., 5% CO2. […] After removal of the non-invading cells from the interior of the inserts, stained invading cells were lysed in 10% acetic acid and OD595 was determined. […]

[3] = system: MDA-MB231 cells; assay: Cell cycle distribution of MDA-MB231 cells by flow cytometry; conditions: siRNA transfection
Procedure: Cell cycle analysis was performed to further study the effects of inhibition of Notch signaling in breast cancer cells. MDA-MB231 cells were treated overnight with 0-10 μM z-Leu-Leu-Nle-CHO prior to cell cycle distribution analysis by flow cytometry. Alternatively, MDA-MB231 cells were transfected with Notch-1, Notch-4 or control siRNA as described above in Example 15. For cell cycle distribution analysis by flow cytometry, z-Leu-Leu-Nle-CHO- or siRNA-treated cells (10^6) were pelleted and washed twice in PBS. Cells were then fixed in 80% methanol and stored at −20° C. until use. Fixed cells were pelleted and washed twice in PBS, and resuspended in 50 μl PI:PBS solution (50 μg/ml PI). After RNase A (100 μg/ml) treatment at 37° C. for an hour, cells were analyzed by flow cytometry using a FACScalibur instrument.

[4] = system: MDA-MB231 breast cancer cells; assay: Extracellular matrix invasion of MDA-MB231 cells (Matrigel Invasion Chambers); conditions: siRNA transfection, 22 hours
Procedure: Cytotoxicity and growth of transfected cells were estimated by a standard assay used for cancer drug screening, through the total amount of TCA-precipitated cell proteins after drug treatment (Likhitwitayawuid, K et al., 1993, J Nat Prod 56:30-38): 200 μl of cell suspension (10^5 cells/ml) were added to each well in a 96-well plate. After incubation at, 37° C., in 5% CO2 (30 minutes to 72 hours depending on the time course chosen), 50 μl 50% trichloroacetic acid was added to each well. After incubation at 4° C. for 1 hour, precipitates were washed with water 4-5 times and air dried overnight. One hundred μl of SRB solution (0.4% sulforhodamine B in 1% acetic acid, filtered before use) was added to each well for 30 minutes. Wells were washed with 1% acetic acid 4-5 times and air dried. Two hundred μl 10 mM Tris base was added to each well. Plates were shaken for 5-10 minutes and OD at 490 nm (OD490) was recorded via ELISA reader. To assay matrix invasion, 300 μl of cell suspension (10^6 cells/mL in serum-free medium) were added to invasion inserts (BioCoat Matrigel Invasion Chambers, Becton Dickinson, Bedford, Mass.) and incubated for 22 hours at 37° C., 5% CO2. Cells were stained with 0.9% crystal violet in 10% ethanol for 20 minutes. Inserts were dipped in water several times and air dried. After removal of the non-invading cells from the interior of the inserts, stained invading cells were lysed in 10% acetic acid and OD595 was determined.
Notch silencing was confirmed by Western blot as described above in Example 15 using commercial goat polyclonal antibodies from Santa Cruz Biotechnology to Notch-1 (C-20, Cat# sc-6014 S). For the Western blot analyses, MDA-MB231 cells were treated with 25 μM IL-X for 48 h or with 0.5, 1 or 2 μM z-Leu-Leu-Nle-CHO for 24 h. Cytotoxicity and matrix invasion assays were performed as described above in Example 15. For the cytotoxicity assays, MDA-MB231 cells were treated with […] IL-X for up to 3 days or with 0-20 μM z-Leu-Leu-Nle-CHO for up to 4 days. […]

[5] = system: NOXA; assay: NOXA antisense oligonucleotide pretreatment before proteasome inhibitors in melanoma cell lines; conditions: MG-132, lactacystin or bortezomib; three melanoma cell lines; 24 hrs
Source text: To more definitively establish a role for NOXA in the proteasome inhibitor-induced apoptotic response, three different melanoma cell lines were pre-treated with an antisense oligonucleotides (ASO). The ASOs included a NOXA targeted sequence (5′-TCAGTCTACTGATTTACTGG-3′) (SEQ ID NO: 2) and a universal scrambled control oligonucleotide (5′-TTCTACCTCGCGCGATTTAC-3′) (SEQ ID NO: 4) (FIGS. 10A, 10B and 10C), or control oligonucleotide (CO) (5′-CCTTCCCTGAAGGTTCCTCC-3′) (SEQ ID NO: 3) (FIGS. 6B and 6D). All three ASO were provided by ISIS Pharmaceuticals Inc. (Carlsbad, Calif.) as previously described by Qin et al., 2004, Mol Cancer Ther. 3:895-902). Melanoma cells were seeded at 2×10^5 cells into 6 well plates 1 day before transfection. Opti-MEM (InVitrogen) was pre-incubated for 30 minutes at room temperature using a ratio of 3 μM/mL lipofectamine per 100 nmol/L to produce a final oligonucleotide concentration of […]. Cells were washed with PBS and transfection mix (1 ml) was added. […] The treated cells were analyzed for cell viability using APO TARGET Annexin V-FITC staining kits (Biosource) and by Western blot using NOXA and β-actin antibodies as described above.

[6] = system: NOXA; assay: NOXA antisense oligonucleotide in z-Leu-Leu-Nle-CHO-treated melanoma cells (Western blot, sub-G0 DNA content); conditions: RJ002L
Source text: The role of NOXA in z-Leu-Leu-Nle-CHO-mediated apoptosis of melanoma cells was further evaluated using RJ002L, C8161 and MUM2B melanoma cell lines containing antisense oligonucleotide targeting NOXA. The antisense oligonucleotides (ASO) included a NOXA targeted sequence (5′-TCAGTCTACTGATTTACTGG-3′) (SEQ ID NO: 2) and a control oligonucleotide (CO) (5′-CCTTCCCTGAAGGTTCCTCC-3′) (SEQ ID NO: 3). The ASO were purchased from ISIS Pharmaceuticals Inc. (Carlsbad, Calif.) as previously described by Qin J et al., 2004, Mol Cancer Ther 3:895-902. Melanoma cells were seeded at 2×10^5 cells into 6 well plates I day before transfection. Opti-MEM (InVitrogen) was pre-incubated for 30 minutes at room temperature using a ratio of 3 μM/mL lipofectamine per 100 nmol/L to produce a final oligonucleotide concentration of 50 nmol/L. Cells were washed with PBS and transfection mix (1 ml) was added. After 4 hrs of incubation, RPMI 1640 (1 mL) containing 20% fetal bovine serum and z-Leu-Leu-Nle-CHO (10 μM) was added to the cells and the cells were incubated for 24 hrs. The treated cells were analyzed for cell viability using APO TARGET Annexin V-FITC staining kits (Biosource), for cell cycle progression and by Western blot using NOXA, Bim, Bak and β-actin antibodies as described above.

C[C@H](NC(=O)[C@@H](O)c1cc(F)cc(F)c1)C(=O)N[C@@H]1C(=O)N(C)c2ccccc2-c2ccccc21 [LY411,575]
potency relative to z-Leu-Leu-Nle-CHO [1]: less potent than z-Leu-Leu-Nle-CHO in vitro

5′-AACCCTGTGCCAATGGAGGCA-3′ [Notch-4 siRNA]
proliferation [2]: even stronger anti-proliferative effect in MDA-MB231 cells than Notch-1 silencing
cell cycle distribution [3]: accumulation of cells in G2/M was maximal at 24 hours
extracellular matrix invasion [4]: significantly inhibited extracellular matrix invasion

5′-TCAGTCTACTGATTTACTGG-3′ (antisense TCAGTCTACTGATTTACTGG; listed as DNA, chemistry not given here) [NOXA ASO]
reduction of proteasome inhibitor-induced apoptotic response [5]: 30-50%
effect on z-Leu-Leu-Nle-CHO mediated apoptosis (sub-G0 DNA content) ([6]; C8161, MUM2B, p<0.01 versus control oligonucleotide): significantly reduced z-Leu-Leu-Nle-CHO mediated apoptosis
effect on z-Leu-Leu-Nle-CHO induction of NOXA, Bim, Bak ([6]; 50 nmol/L oligonucleotide): blocked induction of NOXA, but not Bim or Bak
